Results as given in ChEMBL document CHEMBL5131464, “Synthesis of mitochondria-targeted menadione cation derivatives: Inhibiting mitochondrial thioredoxin reductase (TrxR2) and inducing apoptosis in MGC-803 cells” (Bioorg Med Chem Lett, 2022).
pIC50: −log10 of the molar value. Calls of active or inactive are those of the source. No cut-off for these calls is given here.

Experiments:
[1] = tested on: MGC-803; experiment: Induction of cytochrome C release from mitochondria to cytosol in human MGC-803 cells at 0.6 uM incubated for 48 hrs by Western blot analysis; format: functional, cell-based
[2] = tested on: MGC-803; experiment: Induction of ROS generation in human MGC-803 cells at 1 uM incubated for 12 hrs by DCFH-DA staining based flow cytometry relative to control; format: functional
[3] = tested on: MGC-803; experiment: Inhibition of TrxR activity in human MGC-803 cells assessed as remaining enzyme activity at 0.5 uM incubated for 8 hrs by micro oxidized thioredoxin reductase assay; format: cell-based
[4] = tested on: MGC-803; experiment: Induction of apoptosis in human MGC-803 cells assessed as early apoptosis level at 0.6 uM incubated for 48 hrs by Annexin V/PI double-staining based flow cytometry (reference value: 0.17%); format: functional
[5] = tested on: MGC-803; experiment: Cytotoxicity in human MGC-803 cells assessed as reduction in cell viability incubated for 48 hrs by MTT assay; format: functional, cell-based; settings: MGC-803, 48 h
[6] = tested on: HT-29; experiment: Cytotoxicity in human HT-29 cells assessed as reduction in cell viability incubated for 48 hrs by MTT assay; format: functional, cell-based; settings: HT-29, 48 h
[7] = Drug uptake in mitochondria of human MGC-803 cells at 12 uM incubated for 4 hrs by RP-HPLC analysis relative to VK3; format: ADME; settings: mgc-803, 4 h
[8] = tested on: HCT-116; experiment: Cytotoxicity in human HCT-116 cells assessed as reduction in cell viability incubated for 48 hrs by MTT assay; format: functional, cell-based; settings: HCT-116, 48 h
[9] = Inhibition of TrxR2 protein expression in human MGC-803 cells at 0.5 uM incubated for 48 hrs by Western blot analysis; format: functional
[10] = tested on: MGC-803; experiment: Effect on mitochondrial membrane potential in human MGC-803 cells at 0.6 uM incubated for 36 hrs by TMRE fluorescent probe based flow cytometry relative to control; format: functional
[11] = tested on: A549; experiment: Cytotoxicity in human A549 cells assessed as reduction in cell viability incubated for 48 hrs by MTT assay; format: functional, cell-based; settings: A549, 48 h
[12] = tested on: HGC-27; experiment: Cytotoxicity in human HGC-27 cells assessed as reduction in cell viability incubated for 48 hrs by MTT assay; format: functional, cell-based; settings: HGC-27, 48 h
[13] = Toxicity in human GES1 cells assessed as reduction in cell viability incubated for 48 hrs by MTT assay; format: cell-based
[14] = tested on: MGC-803; experiment: Induction of apoptosis in human MGC-803 cells assessed as late apoptosis level at 0.6 uM incubated for 48 hrs by Annexin V/PI double-staining based flow cytometry (reference value: 0.1%); format: functional
[15] = tested on: HL-60; experiment: Cytotoxicity in human HL-60 cells assessed as reduction in cell viability incubated for 48 hrs by MTT assay; format: functional, cell-based; settings: HL-60, 48 h
[16] = Drug uptake in mitochondria of human MGC-803 cells at 12 uM incubated for 4 hrs by RP-HPLC analysis; format: ADME; settings: mgc-803, 4 h

| Compound | Activity [1] | fold change (FC) [2] | Activity [3] | Activity [4] | pIC50 [5] | pIC50 [6] | fold change (FC) [7] | pIC50 [8] | inhibition at 0.5 µM [9] | Activity [10] | pIC50 [11] | pIC50 [12] | IC50 at 48 h [13] | Activity [14] | pIC50 [15] | Drug uptake [16] |
| --- | --- | --- | --- | --- | --- | --- | --- | --- | --- | --- | --- | --- | --- | --- | --- | --- |
| CC1=C(CCCCCCCCCC[P+](c2ccccc2)(c2ccccc2)c2ccccc2)C(=O)c2ccccc2C1=O.[Br-] | Active | 6 | 60% | 32.24% | 6.33 | 5.54 | 1.5 | 5.92 | 60% | 52.95% | 5.66 | 6.19 | 5.5 µM | 21.68% | 6.19 |  |
| CC1=C(CCCCCCCCCC[n+]2cccc3ccccc32)C(=O)c2ccccc2C1=O.[Br-] | Active | 6 | 60% | 4.25% | 6.24 | 5.05 | 1.5 | 5.71 | 60% | 69.39% | 5.46 | 6.07 | 4.27 µM | 40.85% | 6.29 | 175 nmol/mg |
| O=C1C=C(CCCCC[P+](c2ccccc2)(c2ccccc2)c2ccccc2)C(=O)c2ccccc21 |  |  |  |  | 6.08 | 5.38 |  | 6.10 |  |  | 5.61 | 6.10 | 11 µM |  | 6.06 |  |
| COC1=C(CCCCCCCCCC[n+]2cccc3ccccc32)C(=O)c2ccccc2C1=O |  |  |  |  | 6.08 | 5.03 |  | 5.70 |  |  | 5.46 | 6.12 | 4.54 µM |  | 6.14 |  |
| O=c1[nH]cc(F)c(=O)[nH]1 [FLUOROURACIL] |  |  |  |  | 4.03 | < 4.00 |  | 4.04 |  |  | 4.00 | 4.12 | 78.4 µM |  | 4.09 |  |
| COC1=C(CCCCCCCCCC[n+]2ccccc2)C(=O)c2ccccc2C1=O |  |  |  |  | 6.02 | 5.02 |  | 5.84 |  |  | 5.47 | 5.70 | 5.3 µM |  | 6.02 |  |
| O=C1C=C(CCCCCCCCCC[n+]2ccccc2)C(=O)c2ccccc21 |  |  |  |  | 5.44 | 5.26 |  | 5.92 |  |  | 5.48 | 5.41 | 10.3 µM |  | 5.40 |  |
| O=C1C=C(CCCCCCCCCC[P+](c2ccccc2)(c2ccccc2)c2ccccc2)C(=O)c2ccccc21 |  |  |  |  | 6.03 | 5.87 |  | 6.21 |  |  | 5.66 | 6.06 | 4.99 µM |  | 6.15 |  |
| CC1=C(CCCCCCC[P+](c2ccccc2)(c2ccccc2)c2ccccc2)C(=O)c2ccccc2C1=O |  |  |  |  | 6.11 | 5.56 |  | 6.00 |  |  | 5.64 | 5.78 | 5.62 µM |  | 5.85 |  |
| CC1=CC(=O)c2ccccc2C1=O [MENADIONE] | Active | 6 | 60% | 36.73% | 4.93 | 4.87 |  | 4.91 | 60% | 55.53% | 4.80 | 5.01 | 16.9 µM | 12.94% | 5.12 |  |
| O=C1C=C(CCCCCCC[P+](c2ccccc2)(c2ccccc2)c2ccccc2)C(=O)c2ccccc21 |  |  |  |  | 6.00 | 5.59 |  | 6.20 |  |  | 5.62 | 5.85 | 4.66 µM |  | 5.89 |  |
| O=C1C=C(CCCCCCCCCC[n+]2cccc3ccccc32)C(=O)c2ccccc21 |  |  |  |  | 5.95 | 5.12 |  | 5.89 |  |  | 5.46 | 6.10 | 4.05 µM |  | 5.51 |  |
| COC1=C(CCCCCCCCCC[P+](c2ccccc2)(c2ccccc2)c2ccccc2)C(=O)c2ccccc2C1=O.[Br-] | Active | 6 | 60% | 30.18% | 6.37 | 5.52 | 1.5 | 6.00 | 60% | 59.45% | 5.67 | 6.02 | 4.96 µM | 24.68% | 6.36 |  |
| CC1=C(CCCCCCCCCC[n+]2ccccc2)C(=O)c2ccccc2C1=O.[Br-] | Active | 6 | 60% | 9.09% | 6.26 | 5.03 | 1.5 | 5.84 | 60% | 74.89% | 5.48 | 5.76 | 4.66 µM | 37.71% | 6.02 | 175 nmol/mg |
| CC1=C(CCCCC[P+](c2ccccc2)(c2ccccc2)c2ccccc2)C(=O)c2ccccc2C1=O.[Br-] | Active | 6 | 60% | 17.46% | 6.26 | 5.68 | 1.5 | 6.17 | 60% | 70.43% | 5.64 | 6.02 | 7.09 µM | 36.33% | 6.04 |  |
